The nature of the assay: Singlet oxygen photogeneration (DPBF quenching). The conditions noted are these: 1 µM, DMSO, DPBF 50 μM, 660 nm laser 0.5 J/cm^2. On the procedure:
Singlet oxygen photoregeneration was carried out using 1, 3-diphenylisobenzofuran (DPBF) in DMSO. DPBF is a selective ^1O2 acceptor that reacts with ^1O2. The sample solutions of DPBF (50 μM) which contained DPBF only (50 μM, as a control), MB (1, 5, and 10 μM), chlorin e6 (1, 5, and 10 μM), and rhodin g7 7^1-ethyl ester (1, 5, and 10 μM) were prepared under dark conditions. All of the samples were placed in a 96-well plate, which was covered with aluminum foil. The samples were then irradiated (660 nm, 50 mW, 0.5 J/cm^2) for 1 min and 40 s, and after irradiation, the visible spectra of the sample solutions were measured spectrophotometrically. The normalized absorbance of DPBF at 418 nm was measured in these samples. The ^1O2 photo-generation activities of MB, chlorin e6, and rhodin g7 7^1-ethyl ester can be compared with the different absorbance decay of each sample relative to the DPBF control sample.

For `CN(C)c1ccc2nc3ccc(=[N+](C)C)cc-3sc2c1` [MB, Methylene blue, reference compound], the “^1O2 generation (DPBF absorbance at 418 nm)” value is on record as 22.22%.
